Results reported in patent US20060110376A1, “MDA-7 and free radicals in the treatment of cancer” (priority 2002, published 2006).

Assays:
[1] = tested on: RT2 cells; experiment: MTT growth and trypan blue viability with NAC or Ad.Bcl-XL; format: cell-based, rat; settings: 10 mM NAC 30 min before 6 Gy; Ad.mda-7 25 m.o.i.
Description: FIG. 15A-D. Ad.mda-7 reduces the expression of Bcl-XL and increases the levels of BAX, consistent with a causal role of Bcl-XL expression in the radiosensitizing effect. Cells were cultured for 24 h after plating then infected with Ad.mda-7 or CMV control viruses (25 m.o.i.). The cells were irradiated (6 Gy) 24 hours after infection. Cells were isolated 96 h after irradiation and processed. Panel A. Ad.mda-7 and radiation suppress the expression of Bcl-XL and enhance BAX levels in RT2 cells 96 h after irradiation. Cells were processed for SDS PAGE and immunoblotting. A representative study (n=3). Panel B. RT2 cells were cultured for 24 h then infected with Ad.mda-7 or CMV control viruses at 25 m.o.i. The cells were irradiated (6 Gy) 24 hours after infection. Cells were isolated 96 h after irradiation and the integrity of nuclear DNA under each condition determined. Data are from two representative experiments. Panel C. […] Cells were processed 96 h after irradiation and cell viability determined via trypan blue exclusion assay. […]
(§1) MIT Assay for Determination of Cellular Viability. […] The cytotoxicity of the various treatments was assessed four days after irradiation by measurement of cell viability by use of the MTT assay, as described previously (Mosmann, 1983, J. Immunol. Methods 65:55-63). The plates were read on a Dynatech MR600 Microplate Reader at 540 nm. […]

[2] = tested on: primary renal epithelial cells; experiment: MTT cell growth assay; format: cell-based, human; settings: low concentrations, each agent alone
Description: (§2) FIG. 25A-D. GST-MDA-7 causes a dose-dependent reduction in the proliferation of renal carcinoma cells but not primary renal epithelial cells. Cells were plated in 12 well plates (˜1×10^4 cells/well) and 24 h later treated with increasing concentrations of GST and GST-MDA-7 as indicated. Cell growth was determined via MTT assay 96 h after GST-MDA-7 treatment. Data are the means of 12 wells (one plate per condition, ±SEM) from a representative experiment using different preparations of GST-MDA-7 (n=3). Panel A. UOK121N cells. Panel B. A498 cells. Panel C. Primary renal epithelial cells. Panel D. Primary rat hepatocytes were isolated and cultured as described in Methods. Four hours after plating, hepatocytes were infected with either control CMV virus or Ad.mda-7 (at a multiplicity of infection of 50). […] Cell growth was determined via MTT assay 96 h after MDA-7 treatment. […]
(§3) FIG. 27A-C. […] Cell growth was determined via MTT assay 96 h after GST-MDA-7 treatment. […]
as §1, with “MTT” for “MIT”, “(McKinstry et al., 2002, Cancer Biol. Ther. 1:243-253).” for “(Mosmann, 1983, J. Immunol. Methods 65:55-63).”

[3] = tested on: RCC cell lines A498 and UOK121N; experiment: MTT cell growth assay; format: cell-based, human; settings: As2O3 0.5 μM; 96 h
Description: as §2, §3
as §1, with “MTT” for “MIT”, “(McKinstry et al., 2002, Cancer Biol. Ther. 1:243-253).” for “(Mosmann, 1983, J. Immunol. Methods 65:55-63).”

Compound: CC(=O)N[C@@H](CS)C(=O)O [NAC, N-acetyl-cysteine]
- effect of NAC on Ad.mda-7 + radiation cell killing and proliferation [1]: abolished the enhancement in cell killing and reduction in proliferation

Compound: arsenic trioxide
- growth potential [2]: Neither low concentrations of arsenic trioxide nor GST-MDA-7 alone altered the growth potential
- effect of arsenic trioxide on growth suppression by GST-MDA-7 [3]: enhanced the growth suppressive effects of GST-MDA-7
